Values quoted from earlier work in US8758737B2, “Evaporative cooling composition” (priority 2005, dated 2014).

Settings: stated as a property of the alcohol (evaporative cooling); temperature not given

| Compound | vapor pressure |
| --- | --- |
| CC(C)O [isopropyl alcohol] | 310 mmHg |
| CCO [ethyl alcohol] | about 41.0 mmHg |
